Patent publication US8618065B2 (Max-Planck-Gesellschaft zur Foerderung der Wissenschaften …, priority 2009, dated 2013)

What was measured:
[1] = Toxicity test: leukocyte count in blood and spleen; format: in vivo, mice; settings: three doses of 250 μg on 1st, 3rd and 5th day, cell count on 6th day; FIGS. 4 and 5
Protocol: FIG. 4 the number of leukocytes in the blood before and after administering three doses (1st, 3rd and 5th day) of 250 μg Cs-103 to each animal (determination on the 6th day); and
FIG. 5 the number of leukocytes in the spleen before and after administering three doses (1st, 3rd and 5th day) of 250 μg Cs-103 to each animal (determination on the 6th day).
As the leukocyte count in blood and spleen increases in the case of inflammatory diseases, the number of these cells was used as toxicity marker. As FIGS. 4 and 5 show, the selected compound Cs-103 (after administering three doses of 250 μg Cs-103, on the 1st, 3rd and 5th day, and cell count determination on the 6th day) is harmless in this assay.

OVA/alum-sensitized mice = experiment: Asthma studies: ovalbumin sensitization, bronchial lavage, FACS; format: in vivo, mice (BALE/c line)
Protocol: An immune response to ovalbumin was provoked by administering ovalbumin together with aluminium hydroxide. The immune response can be tracked with the help of the T helper cells population (CD4+) which has migrated into the bronchial lining and the eosinophilic granulocytes which have migrated in.
Female mice (BALE/c line) were sensitized by intraperitoneal (i.p.) administration of 50 μg ovalbumin (OVA) dissolved in phosphate buffer (PBS) plus 100 μL aluminium hydroxide (alum) with a total volume of 200 μL per mouse on day 0.100 μg OVA in PBS (50 μL total volume) in each case was then administered intranasally to the OVA/alum-sensitized mice under mild anaesthesia (isoflurane) on days 7 to 10. From these animals groups were formed which additionally received on days 7, 9, and 11 either 250 μg Cs-103 in PBS (i.p.), PBS only (diluent) or no further addition (−). On day 12 all the animals were killed by CO2 exposure and cells of the bronchial tract were obtained by bronchial lavage (BAL) by means of a cannula introduced into the trachea washing three times each with 1 ml cold PBS. The obtained cells of the BAL were then double dyed (a) with Cy-Chrome-conjugated anti-mouse CD4-antibodies and (b) with FITC-conjugated anti-mouse CD62L-antibodies. The cells were then analyzed by means of FACS. Effector/Memory […] T cells were distinguished as CD4^+/CD62L^− lymphocytes and eosinophilic cells with the help of their scattered light properties (FSC/SSC).

[2] = blood cells vs plasma; cited from earlier work

CC[C@@H]1NC(=O)[C@H]([C@H](O)[C@H](C)CCN(CCC(=O)N[C@H](CCC(=O)O)C(=O)N[C@H](CCC(=O)O)C(=O)N[C@H](CCC(=O)O)C(=O)N[C@H](CCC(=O)O)C(=O)N[C@H](CCC(=O)O)C(=O)N[C@H](CCC(=O)O)C(=O)NCC(=O)O)C(C)=O)N(C)C(=O)[C@H](C(C)C)N(C)C(=O)[C@H](CC(C)C)N(C)C(=O)[C@H](CC(C)C)N(C)C(=O)[C@@H](C)NC(=O)[C@H](C)NC(=O)[C@H](CC(C)C)N(C)C(=O)[C@H](C(C)C)NC(=O)[C@H](CC(C)C)N(C)C(=O)CN(C)C1=O [Cs-103]
leukocyte count in blood and spleen as toxicity marker [1]: harmless
number of eosinophilic granulocytes in the lung lavage fluid (OVA/alum-sensitized mice; 250 μg Cs-103, FIG. 3): very significantly reduced
number of eosinophilic granulocytes which migrated through ovalbumin sensitization into the bronchial lining (OVA/alum-sensitized mice; 250 μg Cs-103, control: OVA-sensitized animals, FIG. 2): very significantly reduced
number of CD4-positive T cells which migrated through ovalbumin sensitization into the bronchial lining (OVA/alum-sensitized mice; 250 μg Cs-103 i.p. on days 7, 9, 11, control: OVA-sensitized animals, FIG. 1): very significantly reduced

C/C=C/C[C@@H](C)[C@@H](O)[C@H]1C(=O)N[C@@H](CC)C(=O)N(C)CC(=O)N(C)[C@@H](CC(C)C)C(=O)N[C@@H](C(C)C)C(=O)N(C)[C@@H](CC(C)C)C(=O)N[C@@H](C)C(=O)N[C@H](COCCO)C(=O)N(C)[C@@H](CC(C)C)C(=O)N(C)[C@@H](CC(C)C)C(=O)N(C)[C@@H](C(C)C)C(=O)N1C [SDZ IMM 125]
concentration in blood cells relative to surrounding plasma [2]: approximately 8 ×
